Data: patent US9493455B2, “Azaindole derivatives as inhibitors of protein kinases” (ORIBASE PHARMA, priority 2012, dated 2016)

Legend:
HUVEC = test: In vitro cell proliferation assay (MTT); assay type: cell-based; conditions: Homo sapiens, 72 h
Description: (§1) Cancer cell lines (5×10^3 cells per well) or HUVEC (1×10^4 cells per well) or HRMEC (1×10^4 cells per well) were distributed in 96-well plates and incubating in duplicate with escalating concentrations (10 nM to 3 μM) of compounds for 72 hr. Cell proliferation was measured using MTT (3 [4,5-dimethylthiazol-2-yl]-2,5-diphenyltetrazolium bromide).

HepG2 = test: In vitro cell proliferation assay (MTT); assay type: cell-based; conditions: Homo sapiens, HepG2, 72 h
Description: as §1

EGFR (ErbB1) = target: T1, EGFR (ErbB1) (Homo sapiens, UniProt P00533); test: In vitro kinase assay (Z′-LYTE); assay type: biochemical; conditions: read-out: % of inhibition of the kinase compared to the control
T1 construct: purchased Invitrogen
Description: (§2) The inhibitory activity of the compounds on several kinases including BRAF, EGFR (ErbB1), EGFR (ErbB1) T790M L858R, FGFR2, KDR (VEGFR2), PDGFRA (PDGFR alpha), SRC and other was evaluated by Invitrogen using the Z′-LYTE® technology. Briefly, the Z′-LYTE® biochemical assay employs a fluorescence-based, coupled-enzyme format and is based on the differential sensitivity of phosphorylated and non-phosphorylated peptides to proteolytic cleavage. The peptide substrate is labeled with two fluorophores—one at each end—that make up a FRET pair. A ratiometric method, which calculates the ratio (the Emission Ratio) of donor emission to acceptor emission after excitation of the donor fluorophore at 400 nm, is used to quantitate reaction progress.
(§3) The compounds are screened in 1% DMSO (final) in the well. For 10 point titrations, 3-fold serial dilutions are conducted from the starting concentration. All Peptide/Kinase Mixtures are diluted to a 2× working concentration in the appropriate Kinase Buffer. All ATP Solutions are diluted to a 4× working concentration in Kinase Buffer (50 mM HEPES pH 7.5, 0.01% BRIJ-35, 10 mM MgCl2, 1 mM EGTA). ATP Km apparent is previously determined using a Z′-LYTE® assay.
(§4) Each compound was incubated at a concentration of 100 nM (excepted to test the activity against ABL and ABL T315I for which the compounds were incubated at a concentration of 10 μM) and the tables B1 to B12 summarize the results obtained showing the inhibitory power of a compound. The inhibitory activity of OR0512 was also investigated using the same assays and the kinases for which activity was inhibited at more than 50% at the concentration of 100 nM of OR0512 are listed in the table B13.

KDR (VEGFR2) = target: T2, KDR (VEGFR2) (Homo sapiens, UniProt P35968); test: In vitro kinase assay (Z′-LYTE); assay type: biochemical; conditions: read-out: % of inhibition of the kinase compared to the control
T2 construct: purchased Invitrogen
Description: as §2, §3, §4

FGFR2 = target: T3, FGFR2 (Homo sapiens, UniProt P21802); test: In vitro kinase assay (Z′-LYTE); assay type: biochemical; conditions: read-out: % of inhibition of the kinase compared to the control
T3 construct: purchased Invitrogen
Description: as §2, §3, §4

BRAF = target: T4, BRAF (Homo sapiens, UniProt P15056); test: In vitro kinase assay (Z′-LYTE); assay type: biochemical; conditions: compound 100 nM; ATP 100 μM; read-out: % of inhibition of the kinase compared to the control
T4 construct: purchased Invitrogen
Description: as §2, §3, §4

BxPC-3 = test: In vitro cell proliferation assay (MTT); assay type: cell-based; conditions: Homo sapiens, BXPC-3, 72 h
Description: as §1

PDGFRA (PDGFR alpha) = target: T5, PDGFRA (PDGFR alpha) (Homo sapiens, UniProt P16234); test: In vitro kinase assay (Z′-LYTE); assay type: biochemical; conditions: read-out: % of inhibition of the kinase compared to the control
T5 construct: purchased Invitrogen
Description: as §2, §3, §4

ABL = target: T6, ABL (Homo sapiens, UniProt P00519); test: In vitro kinase assay (Z′-LYTE); assay type: biochemical; conditions: read-out: % of inhibition of the kinase compared to the control
T6 construct: purchased Invitrogen
Description: as §2, §3, §4

SRC = target: T7, SRC (Homo sapiens, UniProt P12931); test: In vitro kinase assay (Z′-LYTE); assay type: biochemical; conditions: read-out: % of inhibition of the kinase compared to the control
T7 construct: purchased Invitrogen
Description: as §2, §3, §4

EGFR (ErbB1) T790M L858R = target: T8, EGFR (ErbB1) T790M L858R (Homo sapiens, UniProt P00533, L858R/T790M); test: In vitro kinase assay (Z′-LYTE); assay type: biochemical; conditions: read-out: % of inhibition of the kinase compared to the control
T8 construct: purchased Invitrogen
Description: as §2, §3, §4

FGFR1 = target: T9, FGFR1 (Homo sapiens, UniProt P11362); test: In vitro kinase assay (Z′-LYTE); assay type: biochemical; conditions: read-out: % of inhibition of the kinase compared to the control
T9 construct: purchased Invitrogen
Description: as §2, §3, §4

ABL T315I = target: T10, ABL T315I (Homo sapiens, UniProt P00519, T315I); test: In vitro kinase assay (Z′-LYTE); assay type: biochemical; conditions: read-out: % of inhibition of the kinase compared to the control
T10 construct: purchased Invitrogen
Description: as §2, §3, §4

PDGFRB = target: T11, PDGFRB (Homo sapiens, UniProt P09619); test: In vitro kinase assay (Z′-LYTE); assay type: biochemical; conditions: read-out: % of inhibition of the kinase compared to the control
T11 construct: purchased Invitrogen
Description: as §2, §3, §4

VEGFR1 = target: T12, VEGFR1 (Homo sapiens, UniProt P17948); test: In vitro kinase assay (Z′-LYTE); assay type: biochemical; conditions: read-out: % of inhibition of the kinase compared to the control
T12 construct: purchased Invitrogen
Description: as §2, §3, §4

A549 = test: In vitro cell proliferation assay (MTT); assay type: cell-based; conditions: Homo sapiens, A549, 72 h
Description: as §1

H1975 = test: In vitro cell proliferation assay (MTT); assay type: cell-based; conditions: Homo sapiens, NCI-H1975, 72 h
Description: as §1

HT29 = test: In vitro cell proliferation assay (MTT); assay type: cell-based; conditions: Homo sapiens, HT-29, 72 h
Description: as §1

T11 sequence (P09619 33-1106): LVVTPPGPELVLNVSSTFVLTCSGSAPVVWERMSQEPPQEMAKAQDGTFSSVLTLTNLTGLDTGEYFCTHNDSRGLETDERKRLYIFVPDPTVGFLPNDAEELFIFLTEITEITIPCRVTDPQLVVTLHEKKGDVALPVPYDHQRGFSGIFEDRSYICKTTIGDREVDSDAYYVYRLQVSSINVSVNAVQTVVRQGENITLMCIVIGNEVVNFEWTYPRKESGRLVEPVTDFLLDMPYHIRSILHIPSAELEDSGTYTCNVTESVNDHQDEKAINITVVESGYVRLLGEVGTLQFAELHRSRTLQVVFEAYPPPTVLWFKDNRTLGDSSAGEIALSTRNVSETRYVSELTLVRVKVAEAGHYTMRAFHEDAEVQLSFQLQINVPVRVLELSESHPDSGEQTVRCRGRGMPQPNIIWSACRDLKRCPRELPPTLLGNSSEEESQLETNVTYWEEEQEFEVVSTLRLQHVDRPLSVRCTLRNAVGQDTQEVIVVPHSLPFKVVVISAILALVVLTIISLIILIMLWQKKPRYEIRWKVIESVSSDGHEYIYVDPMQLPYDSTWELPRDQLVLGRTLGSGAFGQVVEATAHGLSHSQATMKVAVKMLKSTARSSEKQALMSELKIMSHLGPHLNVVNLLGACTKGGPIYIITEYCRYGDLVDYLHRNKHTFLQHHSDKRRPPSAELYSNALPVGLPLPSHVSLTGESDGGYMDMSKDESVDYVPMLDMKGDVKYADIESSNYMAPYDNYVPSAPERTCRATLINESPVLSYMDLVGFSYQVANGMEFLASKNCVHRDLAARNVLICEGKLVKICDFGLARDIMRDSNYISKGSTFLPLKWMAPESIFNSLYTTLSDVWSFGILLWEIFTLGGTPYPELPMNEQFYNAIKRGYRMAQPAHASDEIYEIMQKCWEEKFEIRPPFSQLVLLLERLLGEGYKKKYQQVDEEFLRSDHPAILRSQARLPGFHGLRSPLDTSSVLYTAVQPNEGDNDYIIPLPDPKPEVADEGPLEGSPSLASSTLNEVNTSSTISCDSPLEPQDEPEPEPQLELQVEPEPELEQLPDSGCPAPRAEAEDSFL
T2 sequence (P35968 20-1356): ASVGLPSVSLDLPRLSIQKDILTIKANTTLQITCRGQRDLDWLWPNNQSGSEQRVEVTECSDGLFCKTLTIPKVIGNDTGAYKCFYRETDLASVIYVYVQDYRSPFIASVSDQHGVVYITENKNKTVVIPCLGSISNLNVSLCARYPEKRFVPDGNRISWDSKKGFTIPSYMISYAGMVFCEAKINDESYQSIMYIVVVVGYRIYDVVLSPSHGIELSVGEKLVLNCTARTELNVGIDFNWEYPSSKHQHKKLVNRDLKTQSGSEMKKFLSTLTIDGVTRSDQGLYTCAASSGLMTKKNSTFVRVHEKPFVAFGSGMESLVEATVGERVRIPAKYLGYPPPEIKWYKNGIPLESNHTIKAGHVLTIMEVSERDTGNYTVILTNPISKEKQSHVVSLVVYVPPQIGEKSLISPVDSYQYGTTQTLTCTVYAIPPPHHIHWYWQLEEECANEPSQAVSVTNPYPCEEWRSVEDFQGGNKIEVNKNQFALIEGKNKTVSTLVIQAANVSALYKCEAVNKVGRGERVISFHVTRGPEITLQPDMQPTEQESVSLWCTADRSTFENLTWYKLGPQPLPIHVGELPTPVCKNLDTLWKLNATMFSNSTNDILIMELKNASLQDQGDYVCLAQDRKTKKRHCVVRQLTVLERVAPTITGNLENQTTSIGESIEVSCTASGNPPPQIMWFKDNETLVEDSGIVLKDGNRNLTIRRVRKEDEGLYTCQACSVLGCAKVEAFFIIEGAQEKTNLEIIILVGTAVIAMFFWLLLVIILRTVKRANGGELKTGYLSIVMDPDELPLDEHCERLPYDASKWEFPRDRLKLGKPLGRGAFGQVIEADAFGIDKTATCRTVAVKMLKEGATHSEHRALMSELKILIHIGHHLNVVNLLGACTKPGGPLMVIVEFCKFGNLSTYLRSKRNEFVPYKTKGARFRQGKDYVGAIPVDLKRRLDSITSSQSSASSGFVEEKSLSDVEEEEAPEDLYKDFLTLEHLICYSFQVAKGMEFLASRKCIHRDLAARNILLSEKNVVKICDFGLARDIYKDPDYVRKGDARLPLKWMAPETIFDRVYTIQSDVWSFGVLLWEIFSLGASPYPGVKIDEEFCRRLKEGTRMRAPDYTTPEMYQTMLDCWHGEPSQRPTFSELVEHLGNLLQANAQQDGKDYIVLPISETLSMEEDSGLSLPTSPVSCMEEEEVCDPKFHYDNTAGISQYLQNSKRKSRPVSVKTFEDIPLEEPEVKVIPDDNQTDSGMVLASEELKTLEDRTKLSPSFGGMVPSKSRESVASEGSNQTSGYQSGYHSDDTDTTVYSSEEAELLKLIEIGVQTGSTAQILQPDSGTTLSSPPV
T4 sequence (P15056 whole entry): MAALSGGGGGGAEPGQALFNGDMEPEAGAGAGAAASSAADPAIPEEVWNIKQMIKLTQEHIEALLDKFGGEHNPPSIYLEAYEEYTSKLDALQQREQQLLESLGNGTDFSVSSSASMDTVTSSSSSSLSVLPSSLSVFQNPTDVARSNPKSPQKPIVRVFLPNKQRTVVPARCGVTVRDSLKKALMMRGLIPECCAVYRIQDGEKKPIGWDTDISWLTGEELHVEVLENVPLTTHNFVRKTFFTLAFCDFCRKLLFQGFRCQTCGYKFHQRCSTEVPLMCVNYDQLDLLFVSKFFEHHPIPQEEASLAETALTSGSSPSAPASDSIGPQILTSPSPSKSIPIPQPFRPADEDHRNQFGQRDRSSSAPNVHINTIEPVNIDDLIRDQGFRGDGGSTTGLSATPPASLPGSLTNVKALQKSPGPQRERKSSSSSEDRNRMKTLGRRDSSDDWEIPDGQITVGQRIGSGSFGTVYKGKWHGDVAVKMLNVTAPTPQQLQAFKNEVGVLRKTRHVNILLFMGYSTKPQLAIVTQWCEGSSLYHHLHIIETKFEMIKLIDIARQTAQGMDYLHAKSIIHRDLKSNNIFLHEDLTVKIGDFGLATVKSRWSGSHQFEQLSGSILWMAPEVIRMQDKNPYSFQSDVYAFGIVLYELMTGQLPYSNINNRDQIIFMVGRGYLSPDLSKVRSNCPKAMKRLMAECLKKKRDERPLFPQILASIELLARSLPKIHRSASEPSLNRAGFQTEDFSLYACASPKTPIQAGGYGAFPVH
T3 sequence (P21802 22-821): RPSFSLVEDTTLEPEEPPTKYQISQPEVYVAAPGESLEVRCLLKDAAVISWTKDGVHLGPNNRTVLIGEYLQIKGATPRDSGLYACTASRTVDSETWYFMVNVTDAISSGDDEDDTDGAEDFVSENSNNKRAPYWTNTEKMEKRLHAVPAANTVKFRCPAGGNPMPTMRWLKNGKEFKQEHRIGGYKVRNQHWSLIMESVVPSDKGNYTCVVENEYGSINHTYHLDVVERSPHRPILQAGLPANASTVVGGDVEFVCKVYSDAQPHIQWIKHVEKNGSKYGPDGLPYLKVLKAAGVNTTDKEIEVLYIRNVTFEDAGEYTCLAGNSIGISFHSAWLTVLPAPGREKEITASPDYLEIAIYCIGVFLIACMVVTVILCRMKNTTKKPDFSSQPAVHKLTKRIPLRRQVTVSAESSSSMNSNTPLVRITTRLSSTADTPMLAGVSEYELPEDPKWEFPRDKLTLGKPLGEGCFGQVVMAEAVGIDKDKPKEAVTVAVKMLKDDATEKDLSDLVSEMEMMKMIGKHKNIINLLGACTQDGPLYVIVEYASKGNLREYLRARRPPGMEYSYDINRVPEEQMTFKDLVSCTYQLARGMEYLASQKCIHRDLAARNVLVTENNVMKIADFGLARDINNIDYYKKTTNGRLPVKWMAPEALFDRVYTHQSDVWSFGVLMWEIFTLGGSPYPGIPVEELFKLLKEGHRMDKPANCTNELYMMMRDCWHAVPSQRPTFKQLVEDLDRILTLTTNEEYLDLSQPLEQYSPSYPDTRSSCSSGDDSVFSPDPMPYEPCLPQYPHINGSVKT
T5 sequence (P16234 24-1089): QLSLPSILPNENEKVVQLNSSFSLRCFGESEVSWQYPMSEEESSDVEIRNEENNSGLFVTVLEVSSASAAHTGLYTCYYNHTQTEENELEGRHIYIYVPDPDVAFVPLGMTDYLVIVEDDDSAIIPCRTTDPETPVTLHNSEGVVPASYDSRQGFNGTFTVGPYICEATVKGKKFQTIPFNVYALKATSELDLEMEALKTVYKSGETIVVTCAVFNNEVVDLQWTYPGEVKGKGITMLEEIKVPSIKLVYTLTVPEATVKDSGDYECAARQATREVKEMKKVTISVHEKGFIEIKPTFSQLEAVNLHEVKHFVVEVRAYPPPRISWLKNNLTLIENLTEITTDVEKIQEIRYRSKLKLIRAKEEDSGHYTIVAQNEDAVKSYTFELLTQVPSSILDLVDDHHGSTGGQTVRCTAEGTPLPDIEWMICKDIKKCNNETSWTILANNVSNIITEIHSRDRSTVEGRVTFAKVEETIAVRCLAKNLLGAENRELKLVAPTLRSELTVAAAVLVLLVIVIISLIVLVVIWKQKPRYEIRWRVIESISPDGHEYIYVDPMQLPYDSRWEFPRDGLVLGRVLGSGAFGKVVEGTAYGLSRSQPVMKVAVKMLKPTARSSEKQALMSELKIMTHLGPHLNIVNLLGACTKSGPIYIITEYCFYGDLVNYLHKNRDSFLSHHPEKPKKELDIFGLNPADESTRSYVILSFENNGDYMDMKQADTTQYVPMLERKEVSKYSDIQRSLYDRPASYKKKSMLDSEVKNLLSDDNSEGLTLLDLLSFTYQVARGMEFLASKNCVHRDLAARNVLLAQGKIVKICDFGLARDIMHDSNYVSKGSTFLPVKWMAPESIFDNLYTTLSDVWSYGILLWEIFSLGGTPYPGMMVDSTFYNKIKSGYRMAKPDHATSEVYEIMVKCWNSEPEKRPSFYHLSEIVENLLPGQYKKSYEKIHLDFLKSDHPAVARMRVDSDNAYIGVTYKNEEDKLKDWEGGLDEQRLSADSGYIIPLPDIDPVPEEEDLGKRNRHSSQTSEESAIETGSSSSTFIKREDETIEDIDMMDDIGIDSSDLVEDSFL

SMILES | EC50 (HUVEC) [nM] | EC50 (HepG2) [nM] | inhibition at 0.1 µM (EGFR (ErbB1)) [%] | inhibition at 0.1 µM (KDR (VEGFR2)) [%] | inhibition at 0.1 µM (FGFR2) [%] | inhibition at 0.1 µM (BRAF) [%] | EC50 (BxPC-3) [nM] | inhibition at 0.1 µM (PDGFRA (PDGFR alpha)) [%] | inhibition at 10 µM (ABL) [%] | inhibition at 0.1 µM (SRC) [%] | inhibition at 0.1 µM (EGFR (ErbB1) T790M L858R) [%] | inhibition at 0.1 µM (FGFR1) [%] | inhibition at 10 µM (ABL T315I) [%] | inhibition at 0.1 µM (PDGFRB) [%] | inhibition at 0.1 µM (VEGFR1) [%] | EC50 (A549) [nM] | EC50 (H1975) [nM] | EC50 (HT29) [nM]
COC(=O)c1cc2cc(NCc3cc(NC(=O)c4ccc(CN5CCC(N(C)C)C5)c(F)c4)ccc3C)cnc2[nH]1 (stereo not shown) [OR0974] | ≥ 1000 | ≥ 1000 | ≥ 50 | ≥ 50 | < 50 | ≥ 50 | – | – | – | – | – | – | – | – | – | – | – | –
COC(=O)c1cc2cc(NCc3cc(NC(=O)c4ccc(-c5csc(C)n5)cc4)ccc3C)cnc2[nH]1 [OR0620] | – | – | ≥ 50 | < 50 | < 50 | < 50 | ≥ 1000 | ≥ 50 | ≥ 50 | ≥ 50 | < 50 | < 50 | < 50 | < 50 | < 50 | – | – | –
COC(=O)c1cc2cc(NCc3cc(NC(=O)c4ccc(CN5CCN(C)CC5)c(F)c4)ccc3C)cnc2[nH]1 [OR0864] | – | ≥ 1000 | ≥ 50 | ≥ 50 | ≥ 50 | ≥ 50 | – | – | – | – | – | – | – | – | – | – | – | –
COC(=O)c1cc2cc(NCc3cc(NC(=O)c4cccc5c4OCC5)ccc3C)cnc2[nH]1 [OR0618] | – | – | < 50 | < 50 | < 50 | < 50 | 100 to 1000 | ≥ 50 | ≥ 50 | ≥ 50 | < 50 | < 50 | < 50 | < 50 | < 50 | – | – | –
COC(=O)c1cc2cc(NCc3cc(NC(=O)c4cc(N5CCN(C)CC5)cc(C(F)(F)F)c4)ccc3C)cnc2[nH]1 [OR0698] | – | – | ≥ 50 | < 50 | < 50 | < 50 | – | < 50 | – | ≥ 50 | < 50 | – | – | – | – | – | – | –
COC(=O)c1cc2cc(NC(=O)c3cccc(CNC(=O)c4ccc(CN5CCN(C)CC5)c(C(F)(F)F)c4)c3)cnc2[nH]1 [OR0983] | ≥ 1000 | ≥ 1000 | < 50 | < 50 | < 50 | < 50 | – | < 50 | – | – | – | – | – | – | – | – | – | –
CCCOC(=O)c1cc2cc(NCc3cc(NC(=O)c4ccc(CN5CCN(C)CC5)c(C(F)(F)F)c4)ccc3C)cnc2[nH]1 [OR0697, 5-{2-methyl-5-[4-(4-methyl-piperazin-1-ylmethyl)-3-trifluoromethyl-benzoylamino]-benzylamino}-1H-pyrrolo[2,3-b]pyridine-2-carboxylic acid propyl ester] | 100 to 1000 | 100 to 1000 | ≥ 50 | < 50 | < 50 | < 50 | 100 to 1000 | < 50 | – | ≥ 50 | < 50 | – | – | – | – | 100 to 1000 | ≥ 1000 | 100 to 1000
COC(=O)c1cc2cc(NCc3cc(NC(=O)c4cc[nH]c4)ccc3C)cnc2[nH]1 [OR0975] | ≥ 1000 | ≥ 1000 | < 50 | < 50 | < 50 | ≥ 50 | – | ≥ 50 | – | – | – | – | – | – | – | – | – | –
C#Cc1cccc(Nc2ncnc3cc(OCCOC)c(OCCOC)cc23)c1 [Erlotinib, reference compound] | ≥ 1000 | – | – | – | – | – | ≥ 1000 | – | – | – | – | – | – | – | – | – | ≥ 1000 | –
COC(=O)c1cc2cc(NCc3cc(NC(=O)c4ccc(CN5CCN(C)CC5)c(C(F)(F)F)c4)ccc3Cl)cnc2[nH]1 [OR0621] | – | – | < 50 | < 50 | < 50 | < 50 | – | < 50 | ≥ 50 | < 50 | < 50 | < 50 | ≥ 50 | < 50 | < 50 | – | – | –
COC(=O)c1cc2cc(NCc3cc(NS(=O)(=O)c4ccc(C)cc4)ccc3C)cnc2[nH]1 [OR0595] | – | – | < 50 | < 50 | < 50 | < 50 | ≥ 1000 | < 50 | ≥ 50 | < 50 | < 50 | < 50 | < 50 | < 50 | < 50 | – | – | –
COC(=O)c1cc2cc(NC(=O)c3cc(NC(=S)c4cc(-n5cnc(C)c5)cc(C(F)(F)F)c4)ccc3C)cnc2[nH]1 [OR0643] | – | – | < 50 | < 50 | < 50 | < 50 | ≥ 1000 | < 50 | ≥ 50 | < 50 | < 50 | < 50 | < 50 | < 50 | < 50 | – | – | –
COC(=O)c1cc2cc(NCc3cc(NC(=O)Nc4cccnc4)ccc3C)cnc2[nH]1 [OR0896] | 100 to 1000 | ≥ 1000 | ≥ 50 | < 50 | < 50 | ≥ 50 | – | – | – | – | – | – | – | – | – | – | – | –
COC(=O)c1cc2cc(NCc3cccc(C(=O)Nc4ccc(CN5CCN(C)CC5)c(C(F)(F)F)c4)c3)cnc2[nH]1 [OR0635] | 100 to 1000 | ≥ 1000 | < 50 | ≥ 50 | ≥ 50 | < 50 | – | – | – | – | – | – | – | – | – | – | – | –
COC(=O)c1cc2cc(NCc3cccc(C(=O)NCc4cccc(C(F)(F)F)c4)c3)cnc2[nH]1 [OR1004] | ≥ 1000 | ≥ 1000 | < 50 | < 50 | < 50 | < 50 | – | < 50 | – | – | – | – | – | – | – | – | – | –
COC(=O)c1cc2cc(NCc3cccc(C(=O)Nc4cccnc4)c3)cnc2[nH]1 [OR0916] | ≥ 1000 | ≥ 1000 | < 50 | < 50 | < 50 | < 50 | – | < 50 | – | – | – | – | – | – | – | – | – | –
COC(=O)c1cc2cc(NCc3cc(NC(=O)Nc4cccc(C(F)(F)F)c4)ccc3C)cnc2[nH]1 [OR0603] | – | – | < 50 | < 50 | < 50 | < 50 | 100 to 1000 | ≥ 50 | ≥ 50 | ≥ 50 | < 50 | < 50 | < 50 | < 50 | < 50 | – | – | –
